Consider ten molecules from ChEMBL document CHEMBL5726595, “Protein kinase inhibitor containing pyrrolopyridazine derivative” (2017).

For the assay, the target named is Hepatocyte growth factor receptor (Homo sapiens, UniProt P08581). In words: Kinase Assay: The inhibitory effect of the compounds of the present invention on the activity of c-Met was confirmed as follows.Specifically, 250 μM G4Y1 peptide, which serves as a substrate for c-Met enzyme (2 ng/μL), and 50 μM ATP were subjected to an enzyme reaction in a reaction buffer (40 mM Tris-HCl (pH 7.5), 20 mM MgCl2, 0.1 mg/mL bovine serum albumin, and 50 μM DTT). The compounds prepared in Examples and comparative compounds were treated at various concentrations and reacted at room temperature for 1 hour, sequentially added with ADP-Glo™ Reagent and the Kinase detection reagent, and reacted at room temperature for 40 minutes and 30 minutes, respectively. Background: ADP-Glo first removes unused ATP, then detects ADP through luciferase.
Chain of Hepatocyte growth factor receptor (P08581 whole entry): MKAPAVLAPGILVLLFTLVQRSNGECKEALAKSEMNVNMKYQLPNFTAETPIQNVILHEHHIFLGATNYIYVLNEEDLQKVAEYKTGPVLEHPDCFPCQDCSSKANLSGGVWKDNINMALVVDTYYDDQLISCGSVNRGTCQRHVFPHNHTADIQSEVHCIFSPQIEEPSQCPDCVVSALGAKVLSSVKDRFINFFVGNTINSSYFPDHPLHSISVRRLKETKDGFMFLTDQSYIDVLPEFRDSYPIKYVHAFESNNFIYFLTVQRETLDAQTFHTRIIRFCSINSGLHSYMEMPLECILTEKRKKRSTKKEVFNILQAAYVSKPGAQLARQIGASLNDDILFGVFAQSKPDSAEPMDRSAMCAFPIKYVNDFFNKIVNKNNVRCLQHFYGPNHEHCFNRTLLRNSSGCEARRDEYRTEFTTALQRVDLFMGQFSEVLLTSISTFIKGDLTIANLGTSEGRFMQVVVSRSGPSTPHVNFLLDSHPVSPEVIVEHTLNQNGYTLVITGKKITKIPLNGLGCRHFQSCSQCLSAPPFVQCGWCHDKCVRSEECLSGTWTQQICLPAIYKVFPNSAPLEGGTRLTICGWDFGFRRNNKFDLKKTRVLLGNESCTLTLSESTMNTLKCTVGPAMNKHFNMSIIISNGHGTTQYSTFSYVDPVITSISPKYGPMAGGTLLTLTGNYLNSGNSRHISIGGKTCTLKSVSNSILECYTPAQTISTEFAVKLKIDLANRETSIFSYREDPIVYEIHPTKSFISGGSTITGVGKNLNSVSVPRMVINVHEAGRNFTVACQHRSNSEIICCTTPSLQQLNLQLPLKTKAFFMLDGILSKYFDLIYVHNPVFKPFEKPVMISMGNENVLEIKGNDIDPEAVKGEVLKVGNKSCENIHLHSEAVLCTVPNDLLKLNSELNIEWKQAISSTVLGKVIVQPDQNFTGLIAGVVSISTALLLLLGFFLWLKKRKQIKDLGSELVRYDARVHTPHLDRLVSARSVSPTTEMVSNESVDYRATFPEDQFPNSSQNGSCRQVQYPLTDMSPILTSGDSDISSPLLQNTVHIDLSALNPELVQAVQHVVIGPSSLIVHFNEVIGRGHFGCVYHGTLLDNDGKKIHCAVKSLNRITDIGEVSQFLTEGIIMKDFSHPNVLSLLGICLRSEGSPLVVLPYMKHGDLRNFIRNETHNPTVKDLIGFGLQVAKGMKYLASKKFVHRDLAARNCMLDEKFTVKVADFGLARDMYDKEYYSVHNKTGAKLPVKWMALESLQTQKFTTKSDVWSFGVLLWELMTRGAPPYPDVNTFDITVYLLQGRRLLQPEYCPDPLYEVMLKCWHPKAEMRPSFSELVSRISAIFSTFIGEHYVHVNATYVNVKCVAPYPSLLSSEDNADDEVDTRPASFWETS
For orientation: IC50 means the point on the concentration scale where inhibition reaches its midpoint. A higher IC50 goes with weaker potency. In the case of `CN(C)Cc1ccc(F)c(-c2ccn3nccc(Oc4ccc(NC(=O)C5(C(=O)Nc6ccc(F)cc6)CC5)cc4F)c23)c1`, the 50% inhibitory concentration (IC50) is < 40 nM.
For the molecule `CCNc1cccc(-c2ccn3nccc(Oc4ccc(NC(=O)C5(C(=O)Nc6ccc(F)cc6)CC5)cc4F)c23)c1`, the IC50 was < 40 nM.
On to `CN(C)Cc1ccc(Cl)c(-c2ccn3nccc(Oc4ccc(NC(=O)C5(C(=O)Nc6ccc(F)cc6)CC5)cc4F)c23)c1`, for which the IC50 was < 40 nM.
For `NCc1cccc(-c2ccn3nccc(Oc4ccc(NC(=O)C5(C(=O)Nc6ccc(F)cc6)CC5)cc4F)c23)c1`, the IC50 was < 40 nM.
As to `CCNCc1cccc(-c2ccn3nccc(Oc4ccc(NC(=O)C5(C(=O)Nc6ccc(F)cc6)CC5)cc4F)c23)c1`, the IC50 was < 40 nM.
`CN(C)Cc1cccc(-c2ccn3nccc(Oc4ccc(NC(=O)C5(C(=O)Nc6ccc(F)cc6)CC5)cc4F)c23)c1`: the IC50 was < 40 nM.
Regarding `N#CCc1cccc(-c2ccn3nccc(Oc4ccc(NC(=O)C5(C(=O)Nc6ccc(F)cc6)CC5)cc4F)c23)c1`, the concentration for half-maximal inhibition (IC50) is < 40 nM.
Turning to `N#Cc1cc(N)cc(-c2ccn3nccc(Oc4ccc(NC(=O)C5(C(=O)Nc6ccc(F)cc6)CC5)cc4F)c23)c1`, the IC50 is < 40 nM.
As to `CNCc1cccc(-c2ccn3nccc(Oc4ccc(NC(=O)C5(C(=O)Nc6ccc(F)cc6)CC5)cc4F)c23)c1`, the IC50 was < 40 nM.
Turning to `CN(C)Cc1cc(F)cc(-c2ccn3nccc(Oc4ccc(NC(=O)C5(C(=O)Nc6ccc(F)cc6)CC5)cc4F)c23)c1`, the IC50 is < 40 nM.
